Test systems include A549 NSCLC; K-562 leukemia; MOLT-4 leukemia; NCI-H460 lung; SR leukemia; TK-10 renal; UO-31 renal; NCI-H23 lung; NCI/ADR-RES ovarian; SK-MEL-5 melanoma.
Test in all cases: NCI tumour cell line growth inhibition, 48 h

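Test compounds were applied to cells in 96-well plates for 48 hours at 5 doses. GI50: concentration for 50% inhibition of growth. TGI: concentration producing complete growth inhibition.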

As to `NC(=O)c1c(NC(=O)c2ccccn2)sc2c1CCC(=O)C2`, the GI50 was over 100 µM in the experiment on A549 NSCLC; 1.54 µM in the experiment with K-562 leukemia; over 100 µM in the experiment on MOLT-4 leukemia; over 100 µM in the experiment on NCI-H460 lung; 0.832 µM with SR leukemia; 5 µM with TK-10 renal. Also, in the experiment on UO-31 renal, the GI50 is 1.82 µM. Moreover, the TGI with A549 NSCLC, with K-562 leukemia, in the experiment with MOLT-4 leukemia, in the experiment on NCI-H460 lung, in the experiment on SR leukemia and in the experiment with TK-10 renal was over 100 µM each time. The same molecule had a TGI in the experiment with UO-31 renal of 6.63 µM.
On to `COc1nc(C#CC2(O)CCCCC2)nc(OC)n1`, for which the TGI in the experiment on A549 NSCLC was 28.1 µM; with K-562 leukemia, over 100 µM; in the experiment with MOLT-4 leukemia it was over 100 µM; in the experiment with NCI-H23 lung, 27.1 µM; in the experiment on NCI-H460 lung it was 78.6 µM; in the experiment on NCI/ADR-RES ovarian, 68.9 µM. The TGI in the experiment on SK-MEL-5 melanoma was determined as 20.2 µM; with SR leukemia, 17.4 µM; with UO-31 renal, 15.1 µM.
Regarding `O=C(OCN1C(=O)C2C3C=CC(C2C1=O)C1C2C(=O)N(COC(=O)C4CCCN4)C(=O)C2C31)C1CCCN1` (centres undefined), the TGI with A549 NSCLC is over 100 µM; with K-562 leukemia, over 100 µM; with MOLT-4 leukemia, over 95.3 µM; in the experiment with NCI-H23 lung, over 100 µM; in the experiment with NCI-H460 lung it was over 56.5 µM; in the experiment with SK-MEL-5 melanoma, over 100 µM. Besides, the TGI was 26.4 µM in the experiment with SR leukemia, over 100 µM with TK-10 renal and over 100 µM in the experiment on UO-31 renal.
Take `O=C(O)C1C2CCC(O2)C1C(=O)Nc1cccc2cccnc12` (centres undefined): the TGI in the experiment with A549 NSCLC, in the experiment on K-562 leukemia, with NCI-H23 lung, with NCI-H460 lung, in the experiment with NCI/ADR-RES ovarian and in the experiment with SR leukemia was over 100 µM in each case. Moreover, the TGI in the experiment on TK-10 renal and in the experiment with UO-31 renal was over 100 µM each time.
As for `COc1ccc2c(c1)[nH]c1c(/C=C/c3ccccc3)nccc12`, the TGI in the experiment on A549 NSCLC was 37.2 µM; in the experiment on K-562 leukemia, over 100 µM; in the experiment with MOLT-4 leukemia, over 100 µM; with NCI-H23 lung it was 35.9 µM; in the experiment with NCI-H460 lung, 33.7 µM; in the experiment on NCI/ADR-RES ovarian, 37.9 µM. The TGI was 36.6 µM with SK-MEL-5 melanoma, over 100 µM in the experiment on SR leukemia, 39.7 µM with TK-10 renal and 24 µM with UO-31 renal.
Consider `CN(C)CC(CC1=C(CC(CN(C)C)N(C)C)CCC1)N(C)C` (centres undefined), for which the TGI in the experiment with A549 NSCLC, in the experiment on K-562 leukemia, in the experiment with MOLT-4 leukemia, with NCI-H23 lung, with NCI-H460 lung and in the experiment with NCI/ADR-RES ovarian was over 100 µM throughout. In addition, the TGI in the experiment with SK-MEL-5 melanoma and in the experiment on UO-31 renal was over 100 µM each time.
Regarding `CC1=CC(=O)c2ccccc2C1=O`, the TGI in the experiment with A549 NSCLC stood at 40.2 µM; in the experiment on MOLT-4 leukemia it was 5.15 µM; in the experiment on NCI-H23 lung, 19.4 µM; in the experiment with NCI-H460 lung, 24.5 µM; with NCI/ADR-RES ovarian it was 30.2 µM; in the experiment with SK-MEL-5 melanoma it was 5.92 µM. Besides, the TGI was over 29 µM in the experiment on SR leukemia, 34.1 µM in the experiment on TK-10 renal and 14 µM with UO-31 renal.
Turning to `Nc1nc(SCCc2ccccc2)nc2nc3c(c(-c4ccccc4)c12)CCCC3`, the TGI in the experiment with A549 NSCLC, in the experiment with K-562 leukemia, with MOLT-4 leukemia, in the experiment with NCI-H23 lung, in the experiment on NCI-H460 lung and in the experiment on NCI/ADR-RES ovarian was over 100 µM throughout. Also, the TGI in the experiment on TK-10 renal and with UO-31 renal was over 100 µM throughout.
On to `COc1cccc2c1Cc1cc(-c3ccccc3)[n+](C)n1-2`, for which the TGI with A549 NSCLC was over 100 µM; with K-562 leukemia, over 100 µM; in the experiment with MOLT-4 leukemia, over 100 µM; in the experiment on NCI-H23 lung it was 32.4 µM; in the experiment with NCI-H460 lung, 40.4 µM; in the experiment with NCI/ADR-RES ovarian it was over 100 µM. In addition, the TGI is 21.7 µM in the experiment with SK-MEL-5 melanoma, over 100 µM in the experiment with SR leukemia, over 100 µM with TK-10 renal and 90.8 µM with UO-31 renal.
Take `C[C@H](CCC(=O)O)[C@H]1CC[C@@]2(C)[C@@H]3C(=O)C[C@H]4C(C)(C)[C@@H](O)CC[C@]4(C)[C@H]3C(=O)C[C@]12C`: the TGI with A549 NSCLC, in the experiment on K-562 leukemia, with MOLT-4 leukemia, with NCI-H23 lung, in the experiment on NCI-H460 lung and in the experiment on NCI/ADR-RES ovarian was over 100 µM throughout. In addition, the TGI with SK-MEL-5 melanoma was over 100 µM; in the experiment on SR leukemia it was over 100 µM; in the experiment with TK-10 renal, over 100 µM; in the experiment on UO-31 renal, 30.2 µM.
Take `CCn1c(-c2ccc(N=NNc3ccc(-c4n[nH]c(=S)n4CC)cc3)cc2)n[nH]c1=S`: the TGI is over 100 µM in the experiment on A549 NSCLC; over 100 µM in the experiment with K-562 leukemia; 6.28 µM with MOLT-4 leukemia; 6.26 µM in the experiment with NCI-H23 lung; over 100 µM in the experiment with NCI/ADR-RES ovarian; 3.48 µM in the experiment on SK-MEL-5 melanoma. Besides, the TGI with SR leukemia is over 100 µM; with TK-10 renal, over 100 µM; in the experiment on UO-31 renal, 5.62 µM.
For the molecule `O=c1cccccc1[O-].O=c1cccccc1[O-].[O]=[U+2]=[O]`, the TGI was over 100 µM in the experiment on A549 NSCLC; 82 µM in the experiment with MOLT-4 leukemia; over 100 µM with NCI-H23 lung; over 100 µM in the experiment on NCI-H460 lung; over 100 µM with SK-MEL-5 melanoma; 57.3 µM with TK-10 renal.
Turning to `Nc1ccccc1S(=O)(=O)c1ccccc1`, the TGI in the experiment with A549 NSCLC, in the experiment on K-562 leukemia, with MOLT-4 leukemia, in the experiment with NCI-H23 lung, in the experiment on NCI-H460 lung and in the experiment on SK-MEL-5 melanoma was over 100 µM in each case. Further, the TGI in the experiment with SR leukemia, with TK-10 renal and in the experiment with UO-31 renal was over 100 µM throughout.
As for `O=C(/C=C/c1ccc(O)c(-c2cc(C(=O)/C=C/c3ccc(O)cc3)c(O)cc2O)c1)c1ccc(O)cc1O`, the TGI was over 50 µM in the experiment on A549 NSCLC; 35.1 µM in the experiment with K-562 leukemia; over 50 µM in the experiment on MOLT-4 leukemia; over 50 µM in the experiment on NCI-H23 lung; over 50 µM with NCI-H460 lung; over 50 µM in the experiment on NCI/ADR-RES ovarian. Besides, the TGI was over 50 µM in the experiment with SK-MEL-5 melanoma, 28.4 µM with SR leukemia, over 50 µM in the experiment with TK-10 renal and over 50 µM with UO-31 renal.

The values above are taken from PubChem BioAssay (NCI).
